Counter-ions that a name gives are not always drawn. Like-named read-outs stand apart in the source and are kept apart here.
How the values were obtained:
[1] = target: T1, MAO-A (Rattus norvegicus, UniProt P21396); test: biochemical; assay type: biochemical; conditions: substrate 5-HT (5 × 10^-4 M); rat liver MAO, in vitro; average of at least 3 independent experiments
T1 sequence (P21396 1-526): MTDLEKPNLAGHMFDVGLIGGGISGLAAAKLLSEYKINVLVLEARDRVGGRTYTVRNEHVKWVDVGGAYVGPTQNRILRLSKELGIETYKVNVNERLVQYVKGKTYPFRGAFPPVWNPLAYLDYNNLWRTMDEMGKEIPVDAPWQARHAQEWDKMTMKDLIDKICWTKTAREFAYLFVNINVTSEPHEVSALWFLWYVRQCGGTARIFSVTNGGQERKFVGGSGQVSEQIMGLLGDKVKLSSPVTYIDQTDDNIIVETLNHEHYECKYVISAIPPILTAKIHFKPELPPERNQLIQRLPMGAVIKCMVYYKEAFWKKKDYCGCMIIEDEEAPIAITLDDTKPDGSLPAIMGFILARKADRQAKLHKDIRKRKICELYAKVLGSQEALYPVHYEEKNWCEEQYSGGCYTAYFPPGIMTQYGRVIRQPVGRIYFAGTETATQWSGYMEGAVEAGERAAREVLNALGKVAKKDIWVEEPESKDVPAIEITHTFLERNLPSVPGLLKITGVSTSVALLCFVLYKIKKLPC
Method: (§1) The aliphatic propargylamine inhibitors (from 1×10^-10 M to 1×10^-4 M) were preincubated with the MAO for 20 min. at ambient room temperature and then the residual enzyme activities were determined by addition of the substrates, followed by further incubation at 37° C. for 30 min. The enzymatic reactions were terminated by the addition of citric acid and the aldehyde products were extracted with toluene: ethyl acetate (1:1, v/v) and the radio-activities assessed in a scintillation counter.

[2] = target: T2, MAO-B (Rattus norvegicus, UniProt P19643); test: biochemical; assay type: biochemical; conditions: for IC50: read-out: PE IC50
T2 sequence (P19643 1-520): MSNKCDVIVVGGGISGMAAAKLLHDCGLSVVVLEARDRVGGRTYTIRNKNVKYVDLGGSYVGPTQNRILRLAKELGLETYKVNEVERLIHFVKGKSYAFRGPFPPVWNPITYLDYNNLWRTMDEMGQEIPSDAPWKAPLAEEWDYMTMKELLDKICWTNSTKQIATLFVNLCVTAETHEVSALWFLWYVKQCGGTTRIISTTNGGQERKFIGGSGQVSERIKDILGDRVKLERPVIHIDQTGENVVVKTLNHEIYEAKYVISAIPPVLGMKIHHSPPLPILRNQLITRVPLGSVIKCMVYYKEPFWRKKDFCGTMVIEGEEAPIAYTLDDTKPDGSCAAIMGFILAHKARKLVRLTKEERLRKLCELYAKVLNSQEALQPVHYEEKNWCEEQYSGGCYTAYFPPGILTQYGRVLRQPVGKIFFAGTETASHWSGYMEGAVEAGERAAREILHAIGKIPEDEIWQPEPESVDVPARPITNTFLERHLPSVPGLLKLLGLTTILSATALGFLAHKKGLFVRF
Method: as §1

[3] = target: T3, MAO-B (Mus musculus, UniProt Q8BW75); test: in vivo; assay type: in vivo; conditions: for ED50: read-out: PE ID50; for Ratio MAO-A/MAO-B: 120 min
T3 construct: MAO activities in the mouse brain after; from tissue
T3 sequence (Q8BW75 1-520): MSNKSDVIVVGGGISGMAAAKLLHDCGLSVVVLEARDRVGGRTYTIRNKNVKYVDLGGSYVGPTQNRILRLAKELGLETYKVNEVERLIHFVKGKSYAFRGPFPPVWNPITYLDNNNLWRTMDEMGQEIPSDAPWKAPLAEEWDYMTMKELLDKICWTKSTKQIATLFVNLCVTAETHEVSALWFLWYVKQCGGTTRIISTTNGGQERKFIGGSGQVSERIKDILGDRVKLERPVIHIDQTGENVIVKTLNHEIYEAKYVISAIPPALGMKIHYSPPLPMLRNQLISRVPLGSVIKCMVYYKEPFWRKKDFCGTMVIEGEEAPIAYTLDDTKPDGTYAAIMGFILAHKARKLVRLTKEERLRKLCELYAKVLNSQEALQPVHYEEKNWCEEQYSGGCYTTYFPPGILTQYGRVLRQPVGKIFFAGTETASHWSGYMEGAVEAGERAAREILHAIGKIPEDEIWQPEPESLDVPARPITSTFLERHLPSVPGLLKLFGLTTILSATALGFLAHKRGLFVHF
Method: (§2) Albino Swiss mice were used in this study. The animals were injected intraperitoneally with different doses of the aliphatic propargylamines in 100 μL saline.
(§3) 0.5, 1, 2, 5, 10, 20, 50, 100 mg/Kg. Striata were dissected from the brai
(§4) two hours after i.p. administration of the drugs. MAOA and MAOB activitie
(§5) were determined immediately. The values were estimated from doseresponse

[4] = target: T4, MAO-A (Mus musculus, UniProt Q64133); test: in vivo; conditions: ip, read-out: 5-HT ID50
T4 construct: MAO activities in the mouse brain after; from tissue
T4 sequence (Q64133 1-526): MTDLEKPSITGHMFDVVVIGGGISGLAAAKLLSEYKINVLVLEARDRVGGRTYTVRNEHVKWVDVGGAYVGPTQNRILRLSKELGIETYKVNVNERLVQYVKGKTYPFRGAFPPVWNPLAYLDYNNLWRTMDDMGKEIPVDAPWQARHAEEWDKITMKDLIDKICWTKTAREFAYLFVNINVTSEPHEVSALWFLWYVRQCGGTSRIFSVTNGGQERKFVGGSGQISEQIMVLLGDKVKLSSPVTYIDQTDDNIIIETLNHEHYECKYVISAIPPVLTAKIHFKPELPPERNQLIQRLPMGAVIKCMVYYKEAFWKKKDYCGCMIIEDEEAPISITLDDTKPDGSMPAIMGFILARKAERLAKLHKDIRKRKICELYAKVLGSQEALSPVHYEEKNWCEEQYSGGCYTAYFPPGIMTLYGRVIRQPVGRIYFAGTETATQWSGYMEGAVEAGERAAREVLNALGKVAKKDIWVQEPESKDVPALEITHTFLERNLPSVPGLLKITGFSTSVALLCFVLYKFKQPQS
Method: as §2, §3, §4, §5

[5] = target: T3, MAO-B; test: MAO-B activity in the mouse brain after oral administration (substrate PE); assay type: in vivo; conditions: for Relative activity PE: oral 10 mg/Kg, PE (1.9 × 10^-5 M), mean ± standard error, saline = 100
Method: (§6) Table 3 indicates the MAO activities in the mouse brain following oral administration of the aliphatic propargylamines.
(§7) of each compound. Striata were dissected from the brain two hours after
(§8) the administration of the drugs. MAOA and MAOB activities were determined
Striata were dissected from the brain two
hours after oral administration of the drugs. MAOB activities were then
determined immediately. The values were estimated from doseresponse

[6] = target: T4, MAO-A; assay type: in vivo
Method: as §6, §7, §8

[7] = tested on: monoamine oxidase; test: Inhibition of rat liver monoamine oxidase deamination of dopamine (DA, mixed-type MAO A and B substrate) in vitro; assay type: biochemical; conditions: substrate DA (5 × 10^-4 M), average of at least 3 independent experiments
Method: as §1

[8] = ID50 i.p. in mice versus IC50 in vitro
[9] = mouse, ip, 2 hours after administration, […], estimated from dose response curves
[10] = 2 hours after administration, 5-HT 5 × 10^-4 M, estimated from dose response curves
[11] = oral 10 mg/Kg, 2 hours, 5-HT (5 × 10^-4 M), mean ± standard error, saline = 100
[12] = rat, liver mitochondrial membranes

| SMILES | 5-HT IC50 [1] | PE IC50 [2] | IC50 [1] [nM] | IC50 [2] [nM] | MAO-B ID50 (mg/Kg) / IC50 (1 × 10^-6 M) [3, 8] | ED50 [3, 9] [mg/kg] | Relative activity PE ([5]; 2 hours) [%] | further results |
| --- | --- | --- | --- | --- | --- | --- | --- | --- |
| C#CCN(CC)CCCC.O=C(O)C(=O)O [Example 1-BuEP, N-(1-Butyl)-N-ethylpropargylamine oxalate salt] | inactive | inactive |  |  |  |  |  |  |
| C#CCN(C)CCCCCCC.Cl [Example 1-HMP, N-(1-Heptyl)-N-methylpropargylamine hydrochloride] |  |  | 40000 | 2000 | 7.5 (mg/Kg)/(1 × 10^-6 M) | 15 | 118 ± 14 | Ratio MAO-A/MAO-B ([2]; ratio of IC50 values, in vitro): 20; Ratio MAO-A/MAO-B ([3]; ratio of ID50 values, i.p.): 7; ED50 [4, 10]: 100 mg/kg; Relative activity 5-HT [6, 11]: 123 ± 16% |
| C#CCN(C)CCCCCC(=O)OCC.O=C(O)C(=O)O [Example 5-CP1MP, N-(5-carbethoxy-1-pentyl)-N-methylpropargylamine oxalate] | inactive | inactive |  |  |  |  |  | DA IC50 [7]: inactive |
| C#CCN(C)C(C)CCCCCCCC.Cl (stereo not drawn) [Example 2-DMP, N-(2-Decyl)-N-methylpropargylamine hydrochloride] |  |  | 4000 | 200 | 25 (mg/Kg)/(1 × 10^-6 M) | 5 | 104 ± 7 | Ratio MAO-A/MAO-B ([2]; ratio of IC50 values, in vitro): 50; IC50 [7]: 200 nM; Ratio MAO-A/MAO-B ([3]; ratio of ID50 values, i.p.): 7; ED50 [4, 10]: 35 mg/kg; effectiveness in blocking MAO-B activity in vivo after acute oral administration (in words) ([5]; mouse, oral): less potent at inhibiting MAO-B activity in vivo after acute administration; ED50 ([5]; mouse, oral, 2 hours, average of 5 animals per dose, estimated from dose response curves, read-out: Inhibition of MAO-B activity, dose response (ID50)): 50 mg/kg; Relative activity 5-HT [6, 11]: 97 ± 8% |
| C#CCN(C)C(C)CCCCC.Cl (stereo not drawn) [Example 2-HMP, N-(2-Heptyl)-N-methylpropargylamine hydrochloride] |  |  | 20000 | 200 |  |  | 39 ± 4 | Ratio MAO-A/MAO-B [2, 12]: 100; IC50 [7]: 300 nM; MAO-B ID50 (mg/Kg) / IC50 (1 × 10^-6 M) ([3]; mouse, in vivo, ip): 2.5; Ratio MAO-A/MAO-B ([3]; mouse, in vivo, ip): 50; ED50 ([3]; mouse, ip, 2 h): 0.5 mg/kg; ED50 ([4]; 2 h): 25 mg/kg; Relative activity 5-HT ([6]; mouse, in vivo, po, 10 mg/kg): 99 ± 5 |
| C#CCN(C)CCCC(=O)O [Example 3-CP-MP, N-(3-Carboxy-1-propyl)-N-methylproparglamine oxalate] | inactive |  |  |  |  |  |  | PE IC50 ([2]; substrate PE (1.9 × 10^-5 M), rat liver MAO, in vitro, average of at least 3 independent experiments): inactive; DA IC50 [7]: inactive |
| C#CCN(C)C(CC)CC.O=C(O)C(=O)O [Example M-3-PP, N-Methyl-N-(3-pentyl)propargylamine oxalate] |  |  | 2000 | 200 | 10 (mg/Kg)/(1 × 10^-6 M) | 1 |  | Ratio MAO-A/MAO-B [2, 12]: 10; Ratio MAO-A/MAO-B ([3]; mouse, in vivo, ip): 12; ED50 ([4]; 2 h): 12 mg/kg |
| C#CCCN(C)C(C)CC.O=C(O)C(=O)O (stereo not drawn) [Example 3-BuBuM, N-(3-Butynyl)-N-(2-butyl)methylamine oxalate salt] | inactive | inactive |  |  |  |  |  |  |
